Reference: ChEMBL document CHEMBL1158927, “Facilitation of protein biosynthesis by ginsenoside-Rb2 administration in diabetic rats” (1990)

Columns and labels:
Rattus norvegicus [1] = test: Antidiabetic activity against streptozotocin-induced diabetic Wistar rat assessed as increase in serum albumin level at 10 mg/day, ip for 3 days measured after 3 days by BCG method (RVb=3.24+/-0.11 g/dl); type: functional
Rattus norvegicus [2] = test: Antidiabetic activity against streptozotocin-induced diabetic Wistar rat assessed as increase in incorporation of [14C]leucine into hepatic homogenate at 10 mg/day, ip measured per mg protein after 3 days (RVb=401+/-16 cpm); type: functional
Rattus norvegicus [3] = test: Antidiabetic activity against streptozotocin-induced diabetic Wistar rat assessed as increase in serum protein level at 10 mg/day, ip for 6 days by biuret method; type: functional
Rattus norvegicus [4] = test: Antidiabetic activity against streptozotocin-induced diabetic Wistar rat assessed as increase in incorporation of [14C]leucine into hepatic soluble fraction at 10 mg/day, ip measured per mg protein after 6 days (RVb=227+/-8 cpm); type: functional
Rattus norvegicus [5] = test: Antidiabetic activity against streptozotocin-induced diabetic Wistar rat assessed as increase in incorporation of [14C]leucine into hepatic microsomal fraction at 10 mg/day, ip measured per mg protein after 6 days (RVb=499+/-57 cpm); type: functional, Liver
Rattus norvegicus [6] = test: Antidiabetic activity against streptozotocin-induced diabetic Wistar rat assessed as decrease in serum glucose level at 10 mg/day, ip for 3 days measured after 3 days (RVb=396+/-18.7 mg/dl); type: functional
Rattus norvegicus [7] = test: Antidiabetic activity against streptozotocin-induced diabetic Wistar rat assessed as increase in incorporation of [14C]leucine in to hepatic […] fraction at 10 mg/day, ip measured per mg protein after 3 days (RVb=377+/-10 cpm); type: functional
Rattus norvegicus [8] = test: Antidiabetic activity against streptozotocin-induced diabetic Wistar rat assessed as increase in incorporation of [14C]leucine in to hepatic nuclear fraction at 10 mg/day, ip measured per mg protein after 6 days (RVb=273+/-8 cpm); type: functional
Rattus norvegicus [9] = test: Antidiabetic activity against streptozotocin-induced diabetic Wistar rat assessed as increase in incorporation of [14C]leucine into hepatic microsomal fraction at 10 mg/day, ip measured per mg protein after 3 days (RVb=555+/-33 cpm); type: functional, Liver
Rattus norvegicus [10] = test: Antidiabetic activity against streptozotocin-induced diabetic Wistar rat assessed as increase in incorporation of [14C]leucine in to hepatic nuclear fraction at 10 mg/day, ip measured per mg protein after 3 days (RVb=272+/-8 cpm); type: functional
Rattus norvegicus [11] = test: Antidiabetic activity against streptozotocin-induced diabetic Wistar rat assessed as increase in incorporation of [14C]leucine into hepatic homogenate at 10 mg/day, ip measured per mg protein after 6 days (RVb=372+/-3 cpm); type: functional
Rattus norvegicus [12] = test: Antidiabetic activity against streptozotocin-induced diabetic Wistar rat assessed as increase in incorporation of [14C]leucine into hepatic […] fraction at 10 mg/day, ip measured per mg protein after 6 days (RVb=357+/-14 cpm); type: functional
Rattus norvegicus [13] = test: Antidiabetic activity against streptozotocin-induced diabetic Wistar rat assessed as increase in serum protein level at 10 mg/day, ip for 3 days measured after 3 days by biuret method (RVb=5.06+/-0.18 g/dl); type: functional
Rattus norvegicus [14] = test: Antidiabetic activity against streptozotocin-induced diabetic Wistar rat assessed as increase in incorporation of [14C]leucine into hepatic soluble fraction at 10 mg/day, ip measured per mg protein after 3 days (RVb=265+/-8 cpm); type: functional
Rattus norvegicus [15] = test: Antidiabetic activity against streptozotocin-induced diabetic Wistar rat assessed as […] in incorporation of [14C]leucine into per mg serum protein at 10 mg/day, ip measured after 3 days (RVb=640+/-50 cpm); type: functional
Rattus norvegicus [16] = test: Antidiabetic activity against streptozotocin-induced diabetic Wistar rat assessed as increase in serum albumin level at 10 mg/day, ip for 3 days measured after 6 days by BCG method (RVb=3.07+/-0.08 g/dl); type: functional
Rattus norvegicus [17] = test: Antidiabetic activity against streptozotocin-induced diabetic Wistar rat assessed as increase in serum protein level at 10 mg/day, ip for 3 days measured after 6 days by biuret method (RVb=4.86+/-0.30 g/dl); type: functional
Rattus norvegicus [18] = test: Antidiabetic activity against streptozotocin-induced diabetic Wistar rat assessed as […] in incorporation of [14C]leucine into per mg of serum protein at 10 mg/day, ip measured after 6 days (RVb=612+/-40 cpm); type: functional
Rattus norvegicus [19] = test: Antidiabetic activity against streptozotocin-induced diabetic Wistar rat assessed as decrease in serum glucose level at 10 mg/day, ip for 3 days measured after 6 days (RVb=401+/-10.7 mg/dl); type: functional

Compound: CC(C)=CCC[C@](C)(O[C@@H]1O[C@H](CO[C@@H]2OC[C@H](O)[C@H](O)[C@H]2O)[C@@H](O)[C@H](O)[C@H]1O)[C@H]1CC[C@]2(C)[C@@H]1[C@H](O)C[C@@H]1[C@@]3(C)CC[C@H](O[C@@H]4O[C@H](CO)[C@@H](O)[C@H](O)[C@H]4O[C@@H]4O[C@H](CO)[C@@H](O)[C@H](O)[C@H]4O)C(C)(C)[C@@H]3CC[C@]12C [GINSENOSIDE RB2]
- Activity (Rattus norvegicus [1]): 3.24 g/dL
- Activity (Rattus norvegicus [2]): 481 cpm
- Activity (Rattus norvegicus [3]): 17%
- Activity (Rattus norvegicus [4]): 242 cpm
- Activity (Rattus norvegicus [5]): 737 cpm
- Activity (Rattus norvegicus [6]): 337.2 mg/dL
- Activity (Rattus norvegicus [7]): 426 cpm
- Activity (Rattus norvegicus [8]): 314 cpm
- Activity (Rattus norvegicus [9]): 689 cpm
- Activity (Rattus norvegicus [10]): 294 cpm
- Activity (Rattus norvegicus [11]): 424 cpm
- Activity (Rattus norvegicus [12]): 395 cpm
- Activity (Rattus norvegicus [13]): 5.11 g/dL
- Activity (Rattus norvegicus [14]): 287 cpm
- Activity (Rattus norvegicus [15]): 921 cpm
- Activity (Rattus norvegicus [16]): 3.39 g/dL
- Activity (Rattus norvegicus [17]): 5.68 g/dL
- Activity (Rattus norvegicus [18]): 699 cpm
- Activity (Rattus norvegicus [19]): 321 mg/dL
